Assay results published in patent US20240368163A1, “COMPOUNDS AND METHODS FOR MODULATING SPLICING” (REMIX THERAPEUTICS INC., priority 2021, published 2024).
Like-named read-outs stand apart in the source and are kept apart here.

Columns and labels:
Format in all cases: cell-based, human
Target C [1] = test: Splicing RT-qPCR panel, Target C canonical junction (CJ) mRNA; conditions: RT-qPCR panel, canonical junction mRNA, compound concentration having 50% response in CJ decrease, read-out: Target C IC50 (decrease in CJ mRNA levels)
Summary of the method: (§1)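 Cells: A673 (DMEM/10% FBS) or K562 (IMDM/10% FBS). Dose: 11-pt 3-fold, top 10 uM final, ≤0.25% DMSO, 24 h, 37 °C. Readout: RT-qPCR of CJ/AJ exon junctions, ΔΔCt vs housekeeper and DMSO, RQ to % response.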

HTT [2] = test: Splicing RT-qPCR assay, HTT mRNA canonical junction (CJ) and alternative junction (AJ); conditions: for AC50: increase in AJ mRNA
Summary of the method: as §1

SMN2 = test: Splicing RT-qPCR panel, SMN2 canonical junction (CJ) mRNA; conditions: RT-qPCR panel, canonical junction mRNA, compound concentration having 50% response in CJ decrease, read-out: SMN2 IC50 (decrease in CJ mRNA levels)
Summary of the method: as §1

HTT [3] = test: HiBiT protein abundance assay, HTT; conditions: Table 13A, modified K562 cells
Summary of the method: (§2)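 HiBiT-tagged endogenous targets in K562 cells treated 24 h at 37° C. with 10-point 3-fold dilutions (top 10 μM, DMSO ≤0.25%). Luminescence read after lytic LgBiT detection; response normalised to unmodified-cell and DMSO controls, IC50 interpolated at 50% from four-parameter logistic fit.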

Target C [4] = test: HiBiT protein abundance assay, Target C; conditions: Table 13A, modified K562 cells
Summary of the method: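 HiBiT knock-in K562-derived cells seeded at 10000/well and treated with 10-point 3-fold dilutions (top final 10 μM, ≤0.25% DMSO) for 24 h at 37 °C. Lytic HiBiT luminescence normalised to unmodified-cell and DMSO controls; IC50 from 4-parameter fit at 50% abundance.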

MYB [5] = test: HiBiT protein abundance assay, MYB; conditions: Table 13A, modified K562 cells
Summary of the method: as §2

MYB [6] = test: Splicing RT-qPCR assay, MYB mRNA canonical junction (CJ) and alternative junction (AJ); conditions: for AC50: increase in AJ mRNA
Summary of the method: as §1

[7] = Homo sapiens, 24 h, decrease in CJ mRNA, A673 or K562 cells, 24 hours treatment, RT-qPCR, read-out: HTT CJ IC50
[8] = Homo sapiens, 24 h, A673 or K562 cells, 24 hours treatment, RT-qPCR
[9] = Homo sapiens, RT-qPCR panel, canonical junction mRNA, compound concentration having 50% response in CJ decrease, read-out: HTT IC50 (decrease in CJ mRNA levels)
[10] = Homo sapiens, 24 h, decrease in CJ mRNA, A673 or K562 cells, 24 hours treatment, RT-qPCR, read-out: MYB CJ IC50
[11] = Homo sapiens, RT-qPCR panel, canonical junction mRNA, compound concentration having 50% response in CJ decrease, read-out: MYB IC50 (decrease in CJ mRNA levels)

Structure (SMILES)	IC50 (Target C [1]; Homo sapiens)	IC50 (HTT [2]; [7])	AC50 (HTT [2]; [8])	IC50 (HTT [2]; [9])	IC50 (SMN2; Homo sapiens)	IC50 (HTT [3]; Homo sapiens, K562, 24 h)	IC50 (Target C [4]; Homo sapiens, K562, 24 h)	IC50 (MYB [5]; Homo sapiens, K562, 24 h)	IC50 (MYB [6]; [10])	AC50 (MYB [6]; [8])	IC50 (MYB [6]; [11])	IC50 (Target C [1])	IC50 (HTT [2]; RT-qPCR panel, canonical junction mRNA, compound concentration having 50% response in CJ decrease, read-out: HTT IC50 (decrease in CJ mRNA levels))	IC50 (HTT [2]; decrease in CJ mRNA, A673 or K562 cells, 24 hours treatment, RT-qPCR, read-out: HTT CJ IC50)	IC50 (SMN2)	IC50 (HTT [3]; 24 hours)	IC50 (Target C [4]; 24 hours)	IC50 (MYB [5]; 24 hours)	IC50 (MYB [6]; RT-qPCR panel, canonical junction mRNA, compound concentration having 50% response in CJ decrease, read-out: MYB IC50 (decrease in CJ mRNA levels))	IC50 (MYB [6]; decrease in CJ mRNA, A673 or K562 cells, 24 hours treatment, RT-qPCR, read-out: MYB CJ IC50)
Cn1ncc(-c2ccc(-c3ccc(O[C@@H]4C[C@H]5CC[C@@H](C4)N5)nn3)c3[nH]ncc23)n1 [Compound 321, 7-{6-[(1R,3S,5S)-8-azabicyclo[3.2.1]octan-3-yloxy]pyridazin-3-yl}-4-(2-methyl-1,2,3-triazol-4-yl)-1H-indazole]	100 to 1000 nM	100 to 1000 nM	100 to 1000 nM	100 to 1000 nM	< 100 nM	100 to 1000 nM	100 to 1000 nM	100 to 1000 nM	100 to 1000 nM	100 to 1000 nM	100 to 1000 nM	–	–	–	–	–	–	–	–	–
Cn1ncc(-c2ccc(-c3ccc(N[C@@H]4C[C@H]5CC[C@@H](C4)N5)nn3)c3[nH]ncc23)n1 [Compound 322]	< 100 nM	–	< 100 nM	< 100 nM	< 100 nM	< 100 nM	< 100 nM	< 100 nM	< 100 nM	< 100 nM	< 100 nM	–	–	–	–	–	–	–	–	–
Cn1cc(-c2ccc(-c3ccc(O[C@@H]4C[C@H]5CC[C@@H](C4)N5)nn3)c3[nH]ncc23)nn1 [Compound 323, 7-{6-[(1R,3S,5S)-8-azabicyclo[3.2.1]octan-3-yloxy]pyridazin-3-yl}-4-(1-methyl-1,2,3-triazol-4-yl)-1H-indazole]	1000 to 10000 nM	100 to 1000 nM	100 to 1000 nM	100 to 1000 nM	< 100 nM	100 to 1000 nM	1000 to 10000 nM	100 to 1000 nM	100 to 1000 nM	100 to 1000 nM	100 to 1000 nM	–	–	–	–	–	–	–	–	–
Cn1cc(-c2ccc(-c3ccc(N[C@@H]4C[C@H]5CC[C@@H](C4)N5)nn3)c3[nH]ncc23)nn1 [Compound 324, (1R,3s,5S)-N-(6-(4-(1-methyl-1H-1,2,3-triazol-4-yl)-1H-indazol-7-yl)pyridazin-3-yl)-8-azabicyclo[3.2.1]octan-3-amine]	> 10000 nM	1000 to 10000 nM	1000 to 10000 nM	1000 to 10000 nM	100 to 1000 nM	1000 to 10000 nM	1000 to 10000 nM	1000 to 10000 nM	1000 to 10000 nM	1000 to 10000 nM	1000 to 10000 nM	–	–	–	–	–	–	–	–	–
Cn1cc(-c2ccc(-c3ccc(OC4CC(C)(C)NC(C)(C)C4)nn3)c3[nH]ncc23)nn1 [Compound 325, 4-(1-methyl-1H-1,2,3-triazol-4-yl)-7-(6-((2,2,6,6-tetramethylpiperidin-4-yl)oxy)pyridazin-3-yl)-1H-indazole]	> 10000 nM	1000 to 10000 nM	1000 to 10000 nM	1000 to 10000 nM	100 to 1000 nM	1000 to 10000 nM	> 10000 nM	1000 to 10000 nM	1000 to 10000 nM	1000 to 10000 nM	1000 to 10000 nM	–	–	–	–	–	–	–	–	–
CN(c1ccc(-c2cc(F)c(-c3cnn(C)c3)c3cn[nH]c23)nn1)C1CC(C)(C)NC(C)(C)C1 [Compound 326, 6-[5-fluoro-4-(1-methylpyrazol-4-yl)-1H-indazol-7-yl]-N-methyl-N-(2,2,6,6-tetramethylpiperidin-4-yl)pyridazin-3-amine]	–	–	–	–	–	–	–	–	–	–	–	1000 to 10000 nM	100 to 1000 nM	100 to 1000 nM	< 100 nM	100 to 1000 nM	1000 to 10000 nM	100 to 1000 nM	100 to 1000 nM	100 to 1000 nM
c1n[nH]cc1-c1ccc(-c2ccc(O[C@@H]3C[C@H]4CC[C@@H](C3)N4)nn2)c2cn[nH]c12 [Compound 328]	> 10000 nM	> 10000 nM	> 10000 nM	> 10000 nM	1000 to 10000 nM	> 10000 nM	> 10000 nM	1000 to 10000 nM	> 10000 nM	> 10000 nM	> 10000 nM	–	–	–	–	–	–	–	–	–
CN(c1ccc(-c2ccc(-c3cn[nH]c3)c3[nH]ncc23)nn1)[C@@H]1C[C@H]2CC[C@@H](C1)N2 [Compound 329]	> 10000 nM	> 10000 nM	> 10000 nM	> 10000 nM	1000 to 10000 nM	> 10000 nM	> 10000 nM	> 10000 nM	> 10000 nM	> 10000 nM	> 10000 nM	–	–	–	–	–	–	–	–	–
